Measured values published in patent US20050084908A1, “Methods for detecting binding of low-molecular-weight compound and its binding partner molecule” (CHUGAI SEIYAKU KABUSHIKI KAISHA, priority 2000, published 2005).
Values joined by “and” are separate entries in the source; they are usually repeats but may differ in a detail not shown here. Equal values may be shown once. Values belong to the molecule of their own block, whether it stands above or below them.

Tests used:
[1] = target: T1, Recombinant human Vitamin D3 receptor (VDR) (Homo sapiens, UniProt P11473); assay: Inhibition of binding of immobilized ED-533 to VDR (SPR, BIACORE 3000); conditions: VDR 100 nM; for inhibitory activity compared with 1,25(OH)2 vitamin D3 (in words): compound 0, 10, 100 or 1000 nM, FIG. 7; for IC50: test compound 0-1000 nM, 1 hr room temperature, 5% DMSO
T1 construct: purchased Pan Vera Corp
T1 sequence (P11473 1-427): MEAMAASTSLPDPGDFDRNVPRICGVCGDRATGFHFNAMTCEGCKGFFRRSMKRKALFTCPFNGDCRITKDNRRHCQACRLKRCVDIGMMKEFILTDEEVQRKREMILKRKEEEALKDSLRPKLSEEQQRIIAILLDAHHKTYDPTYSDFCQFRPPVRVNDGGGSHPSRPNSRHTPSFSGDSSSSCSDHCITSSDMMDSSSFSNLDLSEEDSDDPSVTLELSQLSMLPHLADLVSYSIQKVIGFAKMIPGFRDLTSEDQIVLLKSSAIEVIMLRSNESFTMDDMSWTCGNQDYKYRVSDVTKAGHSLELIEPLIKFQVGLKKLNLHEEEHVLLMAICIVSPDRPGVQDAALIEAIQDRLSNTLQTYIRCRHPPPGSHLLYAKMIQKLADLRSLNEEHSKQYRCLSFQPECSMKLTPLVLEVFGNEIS
Description: HBS-EP containing 5% DMSO was used as a running buffer, and the flow rate was set at 5 μl/min. Carboxyl groups of carboxymethyl dextran on the Sensor Chip CM5 were activated by injecting 100 μl of 0.05 M N-hydroxysuccinimide (NHS)/0.2 M N-ethyl-N′-(3-dimethyl aminopropyl)carbodiimide (EDC). […] Aliquots (10 to 40 μl) were injected onto the chip and immobilized by the amine coupling method. Excessive activated groups were blocked by injecting 100 μl of ethanolamine, pH 8.5. Non-covalently bound substances were washed out by injecting 10 μl each of 50% aqueous DMSO solution and 50% PrOH/10% DMSO/50 mM HCl.
The structural formulae of OCT and ED-71 are represented by formulae (2) and (3), respectively. [drawing 2]

[2] = BIACORE (SPR) binding activity assay of MBP-ERLBD and ERLBD to immobilized 7α-(9-aminononyl)estradiol; conditions: analyte 20 μg/ml, 10 μl injection; single values of duplicate (n = 2)
Description: Immobilization of 7α-(9-aminononyl)estradiol on the Sensor Chip CM5 (Pharmacia) was carried out as follows. HBS was used as a continuous flow buffer, and the flow rate was set at 5 μl/min. Carboxyl groups of carboxymethyl dextran on the Sensor Chip CM5 were activated by injecting 100 μl of 0.05 M N-hydroxysuccinimide (NHS)/0.2 M N-ethyl-N′-(3-dimethyl aminopropyl)-carbodiimide (EDC). 7α-(9-aminononyl)estradiol (approx. 7 mg/ml in benzene, approx. 4.5 mg/ml in 2-PrOH) was first diluted 10-fold in EtOH, further diluted 10-fold using 10 mM Na-acetate buffer, pH 4.0 or pH 4.5. Aliquots (10 to 50 μl) were injected onto the chip and immobilized by the amine coupling method. Then, excessive activated groups were blocked by injecting 100 μl of ethanolamine, pH 8.5. Further, non-covalently bound substances were washed out by 10 μl of 0.1 M Gly-HCl buffer, pH 2.5 and 10 mM HCl.
The reaction principle was illustrated in FIG. 2. MBP-ERLBD (20 μg/ml, 10 μl) or ERLBD (20 μg/ml, 10 μl) which were prepared by the above-described method were injected onto the chip to assay their binding activities to the immobilized 7α-(9-aminononyl)estradiol. Regeneration and washing of sensor chips were performed by injecting 10 μl of 7% propanol/50 mM HCl.
For the purpose of measuring the reproducibility and lot-to-lot variations of the binding activity assay, the binding activity assay was performed using different lots of MBP-ERLBD and ERLBD preparations to compare assay values in duplicate. The binding levels of MBP-ERLBD (Lot #90) (20 μg/ml, 10 μl) were 2124.9 and 2048.9 RU, indicating a high reproducibility (% CV=2.6%) (Table 1). Highly reproducible data were also obtained for ERLBD (Lots. #110, #111, #112, and #113) (20 μg/ml, 10 μl each), as shown in Table 1. […] The results also indicate that binding activities can be accurately compared lot-to-lot variations, and that this method may be applied to the product quality control, etc. This method has also enabled easily monitoring active fractions in the purification process of ERLBD, leading to shortening of its preparation time. Results of examination of the reproducibility of the binding activity assay and the comparison thereof among sample lots are summarized in Table 1.
Using MBP-ERLBD (Lot #90) and ERLBD (Lots. #110, #111, #112, and #113) as the binding molecule, the binding activity was assayed in duplicate. RU is the unit of surface plasmon resonance intensity. % CV represents the dispersion in duplicate, indicating the larger the value, the greater the dispersion.

[3] = Conventional RI method binding activity assay using labeled oestradiol; conditions: 100% = [6,7-3H]oestradiol bound to all the ERLBD added, single replicate values
From the text: FIG. 5 schematically illustrates a conventional binding assay using a ligand labeled with radioisotope (RI). ^3H-ligand stands for [6,7-^3H]estradiol, MBP-LBD for MBP-ERLBD, and LBD for ERLBD After the ligand and the binding molecule are mixed and allowed to stand at room temperature for 6 hr, the resulting mixture is subjected to the Bound/Free separation procedure. The amount of [6,7-^3H]estradiol bound to MBP-ERLBD or ERLBD is detected with a scintilator.
The binding activity of [6,7-^3H]oestradiol (Amersham Pharmacia Biotech) to a full-length human estrogen receptor-α, ERLBD, and MBP-ERLBD was assayed according to a conventional method using a ligand labeled with radioisotope (RI) (Sasson, S. and Notides, A. C. (1988) Mol. Endcrinol., Vol. 2, No. 4, p307-312). The reaction is schematically illustrated in FIG. 5. The RI value obtained when [6,7-^3H]oestradiol bound to all the ERLBD added to the assay system was taken as 100%, and the relative binding activity was calculated. A full-length human estrogen receptor-α and MBP-ERLBD (lot #87 and #90) were used as the binding molecule. […] The method of the present invention uses proteins as the binding molecule, and the reaction time is thus short, so that the binding activity can be measured with a good reproducibility without causing a decrease in the binding activity.

Molecule: C=C1/C(=C\C=C2/CCC[C@]3(C)[C@@H]([C@H](C)OCCC(C)(C)O)CC[C@@H]23)C[C@@H](O)C[C@@H]1O [OCT, 1α,25-dihydroxy-22-oxavitamin D3]
inhibitory activity compared with 1,25(OH)2 vitamin D3 (in words) [1]: almost the same inhibitory activities
IC50 [1]: 110 nM

B1: ERLBD: partial sequence containing the ligand binding domain of human estrogen receptor-α (Ala288-Arg555) (protein, UniProt P03372 288-555, looked up, fragment)
chain: AANLWPSPLMIKRSKKNSLALSLTADQMVSALLDAEPPILYSEYDPTRPFSEASMMGLLTNLADRELVHMINWAKRVPGFVDLTLHDQVHLLECAWLEILMIGLVWRSMEHPGKLLFAPNLLLDRNQGKCVEGMVEIFDMLLATSSRFRMMNLQGEEFVCLKSIILLNSGVYTFLSSTLKSLEEKDHIHRVLDKITDTLIHLMAKAGLTLQQQHQRLAQLLLILSHIRHMSNKGMEHLYSMKCKNVVPLYDLLLEMLDAHRLHAPTSR
Response [RU], binding level to immobilized 7α-(9-aminononyl)estradiol [2]: about 2000 RU
Relative activity (%), binding of [6,7-3H]oestradiol [3]: about 10%

B2: ERLBD #111: lot of purified ERLBD (protein, UniProt P03372 288-555, looked up, fragment)
chain: B1 chain
Response [RU], binding level to immobilized 7α-(9-aminononyl)estradiol [2]: 1032.0 RU and 990.3 RU

B3: ERLBD #113: lot of purified ERLBD (protein, UniProt P03372 288-555, looked up, fragment)
chain: B1 chain
Response [RU], binding level to immobilized 7α-(9-aminononyl)estradiol [2]: 1613.7 RU and 1597.3 RU

B4: ERLBD #112: lot of purified ERLBD (protein, UniProt P03372 288-555, looked up, fragment)
chain: B1 chain
Response [RU], binding level to immobilized 7α-(9-aminononyl)estradiol [2]: 1255.7 RU and 1203.9 RU

B5: ERLBD #110: lot of purified ERLBD (protein, UniProt P03372 288-555, looked up, fragment)
chain: B1 chain
Response [RU], binding level to immobilized 7α-(9-aminononyl)estradiol [2]: 1825.8 RU and 1815.0 RU

Second part, the molecule after the results:

inhibitory activity compared with 1,25(OH)2 vitamin D3 (in words) [1]: almost the same inhibitory activities
IC50 [1]: 500 nM
Molecule: C=C1/C(=C\C=C2/CCC[C@]3(C)[C@@H]([C@H](C)CCCC(C)(C)O)CC[C@@H]23)C[C@@H](O)[C@@H](OCCCO)[C@@H]1O [ED-71, 2β-(3-Hydroxypropoxy)-1α,25-dihydroxyvitamin D3]

inhibitory activity compared with 1,25(OH)2 vitamin D3 (in words) [1]: almost the same inhibitory activities
IC50 [1]: 520 nM
Molecule: C=C1/C(=C\C=C2/CCC[C@@]3(C)C2CC[C@@H]3[C@H](C)CCCC(C)(O)CCCCCCCCCCN)C[C@@H](O)C[C@@H]1O (stereo partly drawn) [ED-533, (1α,3β,5Z,7E)-25-(10-aminodecanyl)-27-nor-9,10-secocholesta-5,7,10(19)-triene-1,3,25-triol]
